Two molecules from ChEMBL document CHEMBL4334438, “Discovery of novel glycogen synthase kinase-3α inhibitors: Structure-based virtual screening, preliminary SAR and biological evaluation for treatment of acute myeloid leukemia” (Eur J Med Chem, 2019) can be followed below.

In test [1] the target is Serine/threonine-protein kinase Nek11 (Homo sapiens) (UniProt Q8NG66). The experiment in a line: Inhibition of recombinant full length human NEK11 assessed as residual activity at 1 uM myelin basic protein as substrate measured after 40 mins in presence of [gamma33P]ATP by scintillation counting method relative to control.
In test [2] the test system is Mitogen-activated protein kinase 14 (Homo sapiens), Q16539 [T106M]. The experiment in a line: Inhibition of recombinant human full length SAPK2a T106M mutant assessed as residual activity at 1 uM using myelin basic protein as substrate measured after 40 mins in presence of [gamma33P]ATP by scintillation counting method relative to control.
Test [3] concerns the target LIM domain kinase 2 (Homo sapiens) (UniProt P53671). The experiment in a line: Inhibition of recombinant human LIMK2 assessed as residual activity after 1 uM by radiometry assay relative to control.
For test [4], the target named is Testis-specific serine/threonine-protein kinase 4 (Homo sapiens) (UniProt Q6SA08). The test can be described thus: Inhibition of recombinant full-length human TSSK4 at 1 uM assessed as residual activity at 1 uM using KKLNRTLSFAEPG as substrate measured after 40 mins in presence of [gamma33P]ATP by scintillation counting method relative to control.
Test [5] has as its target Cyclin-dependent kinase 1/cyclin B1 (Homo sapiens) (UniProt P06493+P14635). The test can be described thus: Inhibition of recombinant full length human CDK1/CyclinB assessed as residual activity at 1 uM using Histone H1 as substrate incubated for 40 mins in presence of [gamma-33ATP] by scintillation counting based radiometry assay relative to control. It counts as protein-complex assay.

In test [6] the test system is Receptor-type tyrosine-protein kinase FLT3 (Homo sapiens), P36888 [D835Y]. The experiment in a line: Inhibition of recombinant human FLT3 D835Y mutant (564 to end residues) assessed as residual activity at 1 uM using EAIYAAPFAKKK as substrate at 40 mins in presence of [gamma-33ATP] by scintillation counting based radiometry assay relative to control.
The species named for another test is Homo sapiens. The experiment in a line: Inhibition of recombinant human MER H628Q/R794A mutant (557 to 882 residues) assessed as residual activity at 1 uM using GGMEDIYFEFMGGKKK as substrate incubated for 40 mins in presence of [gamma-33ATP by scintillation counting based radiometry assay relative to control.
Test [7] concerns the target G protein-coupled receptor kinase 3 (Homo sapiens) (UniProt P35626). The experiment in a line: Inhibition of recombinant full length human GRK3 assessed as residual activity at 1 uM using casein as substrate at 40 mins in presence of [gamma-33ATP] by scintillation counting based radiometry assay relative to control.
For test [8], the target named is Serine/threonine-protein kinase WNK2 (Homo sapiens) (UniProt Q9Y3S1). The test can be described thus: Inhibition of human WNK2 (166 to 489 residues) assessed as residual activity at 1 uM using myelin basic protein as substrate measured after 40 mins in presence of [gamma33P]ATP by scintillation counting method relative to control.
Test [9] has as its system Discoidin domain-containing receptor 2 (Homo sapiens), Q16832 [UNDEFINED MUTATION]. The experiment in a line: Inhibition of recombinant human DDR2 S642A mutant (467 to end residues) assessed as residual activity at 1 uM using KKSRGDYMTMQIG as substrate at 40 mins in presence of [gamma-33ATP] by scintillation counting based radiometry assay relative to control.
Test [10] deals with Hepatocyte growth factor receptor (Homo sapiens), P08581 [Y1230D]. The test can be described thus: Inhibition of recombinant human MET A1209G/V1290L/Y1248D mutant (974 to end residues) assessed as residual activity at 1 uM using KKKGQEEEYVFIE as substrate incubated for 40 mins in presence of [gamma-33ATP by scintillation counting based radiometry assay relative to control.
Test [11] concerns the target Receptor-interacting serine/threonine-protein kinase 2 (Homo sapiens) (UniProt O43353). The experiment in a line: Inhibition of recombinant human RIPK2 (1 to 299 residues) assessed as residual activity at 1 uM using myelin basic protein as substrate measured after 120 mins in presence of [gamma33P]ATP by scintillation counting method relative to control.
Test [12] concerns the target Testis-specific serine/threonine-protein kinase 1 (Homo sapiens) (UniProt Q9BXA7). The experiment in a line: Inhibition of recombinant full-length human TSSK1 at 1 uM assessed as residual activity at 1 uM using KKKVSRSGLYRSPSMPENLNRPR as substrate measured after 120 mins in presence of [gamma33P]ATP by scintillation counting method relative to control.
The subject of test [13] is SNF-related serine/threonine-protein kinase (Homo sapiens), Q9NRH2 [UNDEFINED MUTATION]. The test can be described thus: Inhibition of human SNRK E97G/P116A mutant (65 to 409 residues) assessed as residual activity at 1 uM using KKLRRTLSFAEPG as substrate measured after 40 mins in presence of [gamma33P]ATP by scintillation counting method relative to control.
Test [14] concerns the target Protein kinase C beta type (Homo sapiens) (UniProt P05771). The experiment in a line: Inhibition of recombinant human PKCbeta2 (2 to end residues) assessed as residual activity at 1 uM using histone H1 as substrate measured after 40 mins in presence of [gamma33P]ATP by scintillation counting method relative to control.
For test [15], the target named is Serine/threonine-protein kinase Nek7 (Homo sapiens) (UniProt Q8TDX7). The test can be described thus: Inhibition of recombinant human NEK7 (2 to end residues) assessed as residual activity at 1 uM using FLAKSFGSPNRAYKK as substrate measured after 40 mins in presence of [gamma33P]ATP by scintillation counting method relative to control.
Sequence of Serine/threonine-protein kinase Nek7 (Homo sapiens) (Q8TDX7 whole entry, looked up): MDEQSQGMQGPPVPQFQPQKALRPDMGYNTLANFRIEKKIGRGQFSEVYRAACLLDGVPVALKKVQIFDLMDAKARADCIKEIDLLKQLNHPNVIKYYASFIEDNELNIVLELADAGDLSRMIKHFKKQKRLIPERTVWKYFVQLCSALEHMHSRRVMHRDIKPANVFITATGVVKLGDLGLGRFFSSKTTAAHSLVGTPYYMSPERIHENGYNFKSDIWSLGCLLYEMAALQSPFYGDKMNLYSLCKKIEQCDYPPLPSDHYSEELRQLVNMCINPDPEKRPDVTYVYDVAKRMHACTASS
Test [16] concerns Serine/threonine-protein kinase B-raf (Homo sapiens), P15056 [V600E]. The test can be described thus: Inhibition of recombinant full length human B-Raf V599E mutant (416 to end residues) assessed as residual activity at 1 uM using myelin basic protein as substrate incubated for 40 mins in presence of [gamma-33ATP] by scintillation counting based radiometry assay relative to control.

Test [17] deals with Hepatocyte growth factor receptor (Homo sapiens), P08581 [M1250T]. The test can be described thus: Inhibition of recombinant human MET A1209G/V1290L/M1268T mutant (974 to end residues) assessed as residual activity at 1 uM using KKKGQEEEYVFIE as substrate incubated for 40 mins in presence of [gamma-33ATP by scintillation counting based radiometry assay relative to control.
The target in test [18] is BDNF/NT-3 growth factors receptor (Homo sapiens) (UniProt Q16620). The experiment in a line: Inhibition of human TrkB (455 to end residues) assessed as residual activity at 1 uM using poly(Glu, Tyr) 4:1 as substrate measured after 40 mins in presence of [gamma33P]ATP by scintillation counting method relative to control.
Test [19] deals with Serine/threonine-protein kinase tousled-like 2 (Homo sapiens) (UniProt Q86UE8). The experiment in a line: Inhibition of human TLK2 (387 to end residues) assessed as residual activity at 1 uM using casein as substrate measured after 40 mins in presence of [gamma33P]ATP by scintillation counting method relative to control.
Sequence of Serine/threonine-protein kinase tousled-like 2 (Homo sapiens) (Q86UE8 whole entry, looked up, the tested form may be a part): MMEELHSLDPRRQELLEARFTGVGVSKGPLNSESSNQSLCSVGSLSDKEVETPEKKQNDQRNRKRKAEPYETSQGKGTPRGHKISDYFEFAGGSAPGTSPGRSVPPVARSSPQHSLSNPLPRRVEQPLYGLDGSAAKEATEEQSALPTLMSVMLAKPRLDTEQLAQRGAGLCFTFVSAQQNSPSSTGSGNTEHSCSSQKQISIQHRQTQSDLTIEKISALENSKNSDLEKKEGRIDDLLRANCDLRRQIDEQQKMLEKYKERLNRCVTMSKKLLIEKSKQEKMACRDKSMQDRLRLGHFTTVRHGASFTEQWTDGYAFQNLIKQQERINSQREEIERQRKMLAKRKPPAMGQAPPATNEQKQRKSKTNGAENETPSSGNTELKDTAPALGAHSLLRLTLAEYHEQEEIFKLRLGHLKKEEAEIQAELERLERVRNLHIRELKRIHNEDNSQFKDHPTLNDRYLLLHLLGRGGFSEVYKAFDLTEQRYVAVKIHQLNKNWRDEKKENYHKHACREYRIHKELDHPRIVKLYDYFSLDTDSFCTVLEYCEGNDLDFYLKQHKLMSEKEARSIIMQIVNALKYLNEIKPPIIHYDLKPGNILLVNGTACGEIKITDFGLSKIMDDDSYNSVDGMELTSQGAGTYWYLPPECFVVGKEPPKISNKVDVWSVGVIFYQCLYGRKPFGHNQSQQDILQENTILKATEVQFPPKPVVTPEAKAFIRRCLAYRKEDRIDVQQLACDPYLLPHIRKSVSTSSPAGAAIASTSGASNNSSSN
Test [20] concerns the target PAS domain-containing serine/threonine-protein kinase (Homo sapiens) (UniProt Q96RG2). The experiment in a line: Inhibition of recombinant human PASK (995 to end residues) assessed as residual activity at 1 uM using KKLNRTLSFAEPG as substrate measured after 40 mins in presence of [gamma33P]ATP by scintillation counting method relative to control.

Each structure is given as a SMILES string.

Sequence of PAS domain-containing serine/threonine-protein kinase (Homo sapiens) (Q96RG2 whole entry, the tested form may be a part): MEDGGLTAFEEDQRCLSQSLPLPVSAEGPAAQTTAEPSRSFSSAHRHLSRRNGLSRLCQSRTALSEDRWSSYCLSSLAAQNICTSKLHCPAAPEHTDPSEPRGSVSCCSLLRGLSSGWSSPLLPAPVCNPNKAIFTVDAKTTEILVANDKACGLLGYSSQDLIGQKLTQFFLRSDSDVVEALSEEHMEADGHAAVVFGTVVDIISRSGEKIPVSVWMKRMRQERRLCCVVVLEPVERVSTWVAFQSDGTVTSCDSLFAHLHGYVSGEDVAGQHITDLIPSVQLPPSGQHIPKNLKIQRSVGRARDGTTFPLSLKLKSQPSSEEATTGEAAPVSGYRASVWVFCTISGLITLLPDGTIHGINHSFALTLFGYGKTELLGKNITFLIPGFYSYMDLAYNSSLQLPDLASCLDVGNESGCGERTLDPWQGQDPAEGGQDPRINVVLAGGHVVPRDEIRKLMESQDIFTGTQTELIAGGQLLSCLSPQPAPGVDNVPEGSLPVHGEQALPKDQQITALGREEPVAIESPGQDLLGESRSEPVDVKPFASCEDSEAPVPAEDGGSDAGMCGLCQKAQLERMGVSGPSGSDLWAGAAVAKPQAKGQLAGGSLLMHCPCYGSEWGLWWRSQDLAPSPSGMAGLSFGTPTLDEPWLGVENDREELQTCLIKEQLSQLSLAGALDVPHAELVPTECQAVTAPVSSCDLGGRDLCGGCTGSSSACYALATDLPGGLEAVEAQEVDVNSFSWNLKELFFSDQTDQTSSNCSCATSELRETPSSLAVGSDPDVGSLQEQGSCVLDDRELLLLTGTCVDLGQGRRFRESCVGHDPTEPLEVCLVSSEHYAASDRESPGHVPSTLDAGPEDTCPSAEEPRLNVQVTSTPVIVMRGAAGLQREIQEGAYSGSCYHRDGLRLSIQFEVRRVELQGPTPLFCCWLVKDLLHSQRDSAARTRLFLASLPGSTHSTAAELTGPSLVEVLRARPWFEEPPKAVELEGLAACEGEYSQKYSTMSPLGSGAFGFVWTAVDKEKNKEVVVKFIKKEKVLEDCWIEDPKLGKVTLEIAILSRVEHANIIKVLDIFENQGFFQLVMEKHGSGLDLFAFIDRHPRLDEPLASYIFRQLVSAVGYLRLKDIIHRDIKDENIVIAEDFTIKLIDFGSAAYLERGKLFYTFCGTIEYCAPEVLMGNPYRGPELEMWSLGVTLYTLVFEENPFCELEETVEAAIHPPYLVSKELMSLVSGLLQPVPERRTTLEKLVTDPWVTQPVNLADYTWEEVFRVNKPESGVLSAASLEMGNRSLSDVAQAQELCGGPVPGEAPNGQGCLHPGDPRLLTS
Sequence of LIM domain kinase 2 (Homo sapiens) (P53671 whole entry, looked up, the tested form may be a part): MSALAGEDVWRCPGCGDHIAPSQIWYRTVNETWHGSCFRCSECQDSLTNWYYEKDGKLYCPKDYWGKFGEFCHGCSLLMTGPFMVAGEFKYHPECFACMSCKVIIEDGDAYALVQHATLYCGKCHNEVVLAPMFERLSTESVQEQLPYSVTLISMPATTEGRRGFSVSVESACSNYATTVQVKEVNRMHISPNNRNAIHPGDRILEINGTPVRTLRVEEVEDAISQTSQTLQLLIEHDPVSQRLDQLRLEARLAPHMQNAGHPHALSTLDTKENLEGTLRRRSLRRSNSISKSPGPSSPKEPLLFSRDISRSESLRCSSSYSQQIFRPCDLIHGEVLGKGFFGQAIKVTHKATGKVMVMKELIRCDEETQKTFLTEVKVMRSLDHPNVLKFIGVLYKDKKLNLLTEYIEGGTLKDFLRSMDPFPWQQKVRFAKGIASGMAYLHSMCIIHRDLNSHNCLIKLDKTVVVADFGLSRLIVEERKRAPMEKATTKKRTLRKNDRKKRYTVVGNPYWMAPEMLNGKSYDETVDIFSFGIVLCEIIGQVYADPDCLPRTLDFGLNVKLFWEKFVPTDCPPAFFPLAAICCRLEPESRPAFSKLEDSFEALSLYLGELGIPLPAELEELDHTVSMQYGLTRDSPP
Sequence of Receptor-interacting serine/threonine-protein kinase 2 (Homo sapiens) (O43353 whole entry, the tested form may be a part): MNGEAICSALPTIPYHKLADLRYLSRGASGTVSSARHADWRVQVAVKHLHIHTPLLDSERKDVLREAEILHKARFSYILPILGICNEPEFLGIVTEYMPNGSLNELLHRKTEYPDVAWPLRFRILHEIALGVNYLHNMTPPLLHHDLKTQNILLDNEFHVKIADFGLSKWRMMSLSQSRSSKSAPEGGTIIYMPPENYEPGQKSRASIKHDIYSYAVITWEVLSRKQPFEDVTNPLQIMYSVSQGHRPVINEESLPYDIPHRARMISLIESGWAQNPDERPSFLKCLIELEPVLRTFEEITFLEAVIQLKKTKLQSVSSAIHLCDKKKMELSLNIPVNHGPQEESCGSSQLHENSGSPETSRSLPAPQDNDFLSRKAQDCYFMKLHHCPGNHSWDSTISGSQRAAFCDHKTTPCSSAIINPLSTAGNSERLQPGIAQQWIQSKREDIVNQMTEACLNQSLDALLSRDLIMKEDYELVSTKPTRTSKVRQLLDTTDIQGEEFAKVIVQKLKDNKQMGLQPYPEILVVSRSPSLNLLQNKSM
Sequence of G protein-coupled receptor kinase 3 (Homo sapiens) (P35626 whole entry, the tested form may be a part): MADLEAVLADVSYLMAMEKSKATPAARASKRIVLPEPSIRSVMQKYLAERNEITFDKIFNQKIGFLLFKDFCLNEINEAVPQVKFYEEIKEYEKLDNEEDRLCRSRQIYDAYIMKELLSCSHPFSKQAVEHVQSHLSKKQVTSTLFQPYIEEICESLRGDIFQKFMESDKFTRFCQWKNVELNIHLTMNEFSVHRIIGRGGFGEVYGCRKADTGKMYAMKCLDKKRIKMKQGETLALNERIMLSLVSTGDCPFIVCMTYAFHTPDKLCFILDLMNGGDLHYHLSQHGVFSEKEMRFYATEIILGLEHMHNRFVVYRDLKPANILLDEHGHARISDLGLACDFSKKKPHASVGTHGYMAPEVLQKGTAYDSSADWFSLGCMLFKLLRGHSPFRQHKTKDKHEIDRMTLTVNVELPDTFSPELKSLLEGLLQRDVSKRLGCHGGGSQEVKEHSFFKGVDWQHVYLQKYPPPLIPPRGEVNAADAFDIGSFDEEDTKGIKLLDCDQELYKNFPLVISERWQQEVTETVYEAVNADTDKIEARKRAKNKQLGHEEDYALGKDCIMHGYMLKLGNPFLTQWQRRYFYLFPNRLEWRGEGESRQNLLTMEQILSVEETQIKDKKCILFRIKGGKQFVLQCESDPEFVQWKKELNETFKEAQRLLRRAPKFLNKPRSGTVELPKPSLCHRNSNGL
Sequence of Protein kinase C beta type (Homo sapiens) (P05771 2-671 limits assumed): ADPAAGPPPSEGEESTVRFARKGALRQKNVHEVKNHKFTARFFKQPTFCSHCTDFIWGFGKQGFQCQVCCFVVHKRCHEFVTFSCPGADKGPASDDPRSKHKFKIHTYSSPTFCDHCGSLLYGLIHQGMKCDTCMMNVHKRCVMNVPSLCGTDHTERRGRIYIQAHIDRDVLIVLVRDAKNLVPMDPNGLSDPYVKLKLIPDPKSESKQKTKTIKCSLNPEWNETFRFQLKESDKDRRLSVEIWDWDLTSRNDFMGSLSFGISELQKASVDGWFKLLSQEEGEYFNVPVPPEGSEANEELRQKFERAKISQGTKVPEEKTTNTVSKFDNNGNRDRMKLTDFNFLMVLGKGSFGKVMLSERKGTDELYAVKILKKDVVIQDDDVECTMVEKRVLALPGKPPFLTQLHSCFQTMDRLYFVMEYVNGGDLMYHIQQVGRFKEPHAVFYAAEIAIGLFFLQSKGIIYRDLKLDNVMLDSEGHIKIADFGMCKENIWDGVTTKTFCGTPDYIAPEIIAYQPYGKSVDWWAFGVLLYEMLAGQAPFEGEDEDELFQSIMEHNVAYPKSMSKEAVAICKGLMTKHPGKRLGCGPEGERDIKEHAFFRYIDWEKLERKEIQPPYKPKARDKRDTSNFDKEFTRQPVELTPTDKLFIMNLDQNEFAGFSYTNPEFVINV

For `C=CCOC(=O)c1cc(-c2ccc(/C=C3/NC(=S)NC3=O)o2)ccc1Cl`, the Activity in test [1] was determined as 62%; in [2], 100%; in test [3], 95%; in test [4], 121%; in [5] it was 65%; in [6], 101%. The Activity in the test filed under Homo sapiens came out at 101%; in test [7] it was 117%; in test [8] it was 85%; in test [9], 105%; in test [10], 105%; in test [11] it was 62%. The Activity was found to be 97% in test [12]; 83% in test [13]; 100% in [14]; 98% in test [15]; 87% in test [16]; 101% in test [17]. The figures for the Activity in test [18], in test [19] and in test [20] were 92%, 106% and 97%, respectively.

In the case of `N=C1NC(=O)/C(=C\c2ccc(-c3cccc([N+](=O)[O-])c3)o2)S1`, the Activity in test [1] is 55%; in test [2], 80%; in test [3], 101%; in test [4], 102%; in [5], 73%; in test [6] it was 84%. Moreover, the Activity in the test listed under Homo sapiens came out at 97%; in test [7], 94%; in [8], 88%; in test [9], 108%; in test [10] it was 92%; in [11], 66%. Moreover, the Activity was 91% in [12]; 110% in test [13]; 92% in test [14]; 107% in test [15]; 95% in test [16]; 82% in test [17]. Moreover, the Activity was 98% in test [18], 93% in test [19] and 92% in test [20].
